According to patent publication US20220177477A1 (Central China Normal University, priority 2019, published 2022):

Experiments:
TRKC-G696A = target: T1, TRKC-G696A (Homo sapiens, UniProt Q16288, G696A); assay: TRK kinase mutant inhibition (HTRF), TRKC-G696A; type: biochemical
T1 construct: purchased Carna Biosciences

TRKA-F589L = target: T2, TRKA-F589L (Homo sapiens, UniProt P04629, F589L); assay: TRK kinase mutant inhibition (HTRF), TRKA-F589L; type: biochemical
T2 construct: purchased Carna Biosciences

TRKA = target: T3, TRKA (Homo sapiens, UniProt P04629); assay: In vitro biochemical HTRF KinEASE kinase inhibition, TRKA; conditions: wild-type kinase, final ATP 3.727 μmol/L; read-out: TRKA IC50
T3 construct: purchased Carna Biosciences 08-186

[1] = Drug metabolism study in rats, intravenous administration; conditions: rat
TRKC = target: T4, TRKC (Homo sapiens, UniProt Q16288); assay: In vitro biochemical HTRF KinEASE kinase inhibition, TRKC; conditions: wild-type kinase, final ATP 2.526 μmol/L
T4 construct: purchased Carna Biosciences 08-197

Human NSCLC H2228 [2] = assay: Antitumor activity on nude mouse xenograft tumor model (Test Example 4); type: in vivo, nude mice (BALB/c)
Description: The efficacy of the compounds of the invention was evaluated by a standard murine model of the transplanted tumor. Human NSCLC H2228 was cultured, collected, and inoculated subcutaneously to 5-6 weeks old female nude mice (BALB/c, Shanghai Ling Chang Biotech, Ltd.). When the tumor volume reached 100-150 mm^3, the animals were randomly divided into a solvent control group ([…] in water) and a compound group (6 animals per group). Animals were subsequently gavaged with the compounds of the examples (corresponding dose, dissolved in […] in water), starting anywhere from 0 to 7 days after tumor cell inoculation, and were performed twice daily in the experiment.
The experimental index is to examine the influence of the compound of the embodiment on the growth of the tumor, and the specific index is […].
(§1) Tumor diameters were measured twice weekly with a vernier caliper and tumor volume (V) was calculated as:
(§2) V=½×a×b^2 wherein a and b represent length and width, respectively.
(§3) T/C(%)=(T−T0)/(C−C0)×100 where T, C is the tumor volume at the end of the experiment; T0, C0 are tumor volumes at the beginning of the experiment.
(§4) Partial tumor regression (PR) is defined if the tumor shrinks from the initial volume, i.e., T<T0 or C<C0; if the tumor completely disappears, it is defined as complete tumor regression (CR).
(§5) Comparison between the two groups of tumor volumes was tested using a two-tailed Student's t test, with P<0.05 defined as statistically significant differences.
BID below refers to twice daily dosing.

[3] = Drug metabolism study in rats, oral administration; conditions: rat
TRKA-G595R = target: T5, TRKA-G595R (Homo sapiens, UniProt P04629, G595R); assay: TRK kinase mutant inhibition (HTRF), TRKA-G595R; type: biochemical
T5 construct: purchased Carna Biosciences

TRKB = target: T6, TRKB (Homo sapiens, UniProt Q16620); assay: In vitro biochemical HTRF KinEASE kinase inhibition, TRKB; conditions: wild-type kinase, final ATP 2.56 μmol/L
T6 construct: purchased Carna Biosciences 08-187
Description: The material and the method are as follows: wild-type kinases such as TRKA, TRKB and TRKC, and mutant kinases such as TRKA-G595R, TRKA-G667C, TRKA-F589L, TRKC-G623R and TRKC-G696A, and are derived from Carna Biosciences 08-186, 08-187, 08-197; HTRF KinEASE TKkit (Cisbio 62TKO PEC); 384 well plates (Greiner corporation); ATP (Life technologies PV 3227), MgCl2 (sigma); PHERAstar FS Multifunctional microplate reader (BMG Co.); low speed centrifuge (StaiteXiangyi corporation); incubator (Binder company).
Preparing a compound working solution: the dispensed compounds were removed from the freezer prior to testing and diluted to 100× concentration with pure DMSO; then the compound was diluted to the desired concentration of 4× with deionized water;
Preparation of 1.33× enzyme buffer (enzyme buffer): 5× enzyme buffer (from HTRF kit) was diluted to 1.33× with deionized water and the corresponding ingredients were added at a final concentration of 1.33×: 1.33 mmol/L Dithiothreitol (DTT), 1.33 mmol/L MnCl2, 6.65 mmol/L MgCl2 and 39.9 nmol/L SEB;
Preparation of a kinase working solution: TRKA, TRKB and TRKC were diluted with 1.33× enzyme buffer to the required concentrations of 2× of 0.404 ng/μL, 0.304 ng/μL and 0.236 ng/μL, respectively;
Preparing a substrate working solution: a mixture of TK Substrate Blr diluted to the desired final concentration of 4× (from HTRF kit) and ATP (10 mM) with 1.33× enzyme buffer; the final ATP concentrations for TRKA, TRKB, and TRKC were: 3.727 μmol/L, 2.56 μmol/L and 2.526 μmol/L. The TK Substrate-biotin (from HTRF KinEASE TKkit) final concentrations were all: 0.2 μmol/L.
Preparing a detection working solution: 16.67 μmol/L of Streptavidin-XL665 (Streptavidin-XL 665) were diluted to the desired final concentration of 4× with HTRF test buffer and then mixed with an equal volume of Antibody-europium Cryptate (Antibody-Cryptate) (both from HTRF kits).
An enzyme reaction step: add 4 μL of kinase working solution to each well of a low volume 384 microwell plate along with 4 μL of 1.33× enzyme buffer as a Negative control (Negative); add 2 μl of compound working solution to the wells, while adding 2 μl of […] aqueous solution as a zero compound concentration control (i.e., Positive control, Positive); incubating at 25° C. for 5 min; add 2 μL of substrate working solution to the wells to start the enzymatic reaction, shake the reaction for 30 min at 37° C.
HTRF reagent detection step: adding […] to the hole to terminate the reaction; reacting for 1 h at 25° C.;
Reading of HTRF signal: the PHERAstar FS reading is adopted to detect signals, and the corresponding setting of the instrument is as follows:
For the raw data read out per well, the ratio=665 nm/620 nm;
Calculation of inhibition rate:
Calculation of IC50 values: with the logarithm of the compound concentration as abscissa and the inhibition as ordinate, a non-linear curve was fitted in GraphPad Prism 5: log (inhibitor) vs. response—Variable slope, and calculating the concentration of the compound to be detected, namely IC50, when the enzyme activity inhibition rate is 50%.

TRKC-G623R = target: T7, TRKC-G623R (Homo sapiens, UniProt Q16288, G623R); assay: TRK kinase mutant inhibition (HTRF), TRKC-G623R; type: biochemical
T7 construct: purchased Carna Biosciences

TRKA-G667C = target: T8, TRKA-G667C (Homo sapiens, UniProt P04629, G667C); assay: TRK kinase mutant inhibition (HTRF), TRKA-G667C; type: biochemical
T8 construct: purchased Carna Biosciences

Human NSCLC H2228 [4] = assay: Antitumor activity on nude mouse xenograft tumor model (Test Example 5); type: in vivo, nude mice (BALB/c); conditions: for Partially regression: D14, tumors regressed/animals per group
Description: The efficacy of the compounds of the invention was assessed by a standard murine model of transplanted tumors. Human NSCLC H2228 was cultured, collected, and inoculated subcutaneously to 5-6 weeks old female nude mice (BALB/c, Shanghai Ling Chang Biotech, Ltd.). When the tumor volume reached 100-150 mm3, the animals were randomly divided into a solvent control group (70% PEG-400 in water) and a compound group (6 animals per group).
Animals were subsequently gavaged with the compounds of the examples (corresponding doses, dissolved in 70% PEG-400 in water), starting anywhere from 0 to 13 days after tumor cell inoculation, and were performed once or twice daily in the experiment.
The experimental index is to examine the influence of the compound of the embodiment on the growth of the tumor, and the specific index is T/C % or tumor inhibition rate TGI (%).
as §1, §2, §3
Tumor inhibition rate (TGI) (%) 100−T/C (%).
When tumor regression occurred, Tumor inhibition rate (TGI) (%) 100−(T−T0)/T0×100
as §4, §5
BID below indicates twice daily dosing and QD indicates once daily dosing.

[5] = 50 mg/kg BID D0-7, D14, tumors regressed/animals per group

T6 sequence (Q16620 32-822): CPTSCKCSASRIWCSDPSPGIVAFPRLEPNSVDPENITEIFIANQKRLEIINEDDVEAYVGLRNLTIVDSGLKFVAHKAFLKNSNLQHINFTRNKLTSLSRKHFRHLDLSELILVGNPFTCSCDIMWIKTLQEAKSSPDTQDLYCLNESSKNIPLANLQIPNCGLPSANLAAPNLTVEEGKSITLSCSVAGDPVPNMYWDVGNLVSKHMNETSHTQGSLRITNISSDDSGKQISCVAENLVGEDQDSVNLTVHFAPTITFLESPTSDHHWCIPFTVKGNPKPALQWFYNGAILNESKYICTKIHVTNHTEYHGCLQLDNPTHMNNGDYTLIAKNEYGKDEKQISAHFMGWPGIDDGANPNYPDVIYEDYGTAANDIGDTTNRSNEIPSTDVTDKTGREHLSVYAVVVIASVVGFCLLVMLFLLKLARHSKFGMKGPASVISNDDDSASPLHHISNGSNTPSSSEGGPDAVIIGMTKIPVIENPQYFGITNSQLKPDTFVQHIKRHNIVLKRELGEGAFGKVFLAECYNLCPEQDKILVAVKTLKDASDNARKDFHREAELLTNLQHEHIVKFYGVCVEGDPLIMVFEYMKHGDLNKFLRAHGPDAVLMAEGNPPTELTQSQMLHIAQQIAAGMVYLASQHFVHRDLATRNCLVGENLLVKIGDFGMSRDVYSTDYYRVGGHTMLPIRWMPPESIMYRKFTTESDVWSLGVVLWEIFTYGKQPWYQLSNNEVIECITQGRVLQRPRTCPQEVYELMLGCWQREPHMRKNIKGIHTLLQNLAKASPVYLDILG
T2 sequence (P04629 33-796 F589L): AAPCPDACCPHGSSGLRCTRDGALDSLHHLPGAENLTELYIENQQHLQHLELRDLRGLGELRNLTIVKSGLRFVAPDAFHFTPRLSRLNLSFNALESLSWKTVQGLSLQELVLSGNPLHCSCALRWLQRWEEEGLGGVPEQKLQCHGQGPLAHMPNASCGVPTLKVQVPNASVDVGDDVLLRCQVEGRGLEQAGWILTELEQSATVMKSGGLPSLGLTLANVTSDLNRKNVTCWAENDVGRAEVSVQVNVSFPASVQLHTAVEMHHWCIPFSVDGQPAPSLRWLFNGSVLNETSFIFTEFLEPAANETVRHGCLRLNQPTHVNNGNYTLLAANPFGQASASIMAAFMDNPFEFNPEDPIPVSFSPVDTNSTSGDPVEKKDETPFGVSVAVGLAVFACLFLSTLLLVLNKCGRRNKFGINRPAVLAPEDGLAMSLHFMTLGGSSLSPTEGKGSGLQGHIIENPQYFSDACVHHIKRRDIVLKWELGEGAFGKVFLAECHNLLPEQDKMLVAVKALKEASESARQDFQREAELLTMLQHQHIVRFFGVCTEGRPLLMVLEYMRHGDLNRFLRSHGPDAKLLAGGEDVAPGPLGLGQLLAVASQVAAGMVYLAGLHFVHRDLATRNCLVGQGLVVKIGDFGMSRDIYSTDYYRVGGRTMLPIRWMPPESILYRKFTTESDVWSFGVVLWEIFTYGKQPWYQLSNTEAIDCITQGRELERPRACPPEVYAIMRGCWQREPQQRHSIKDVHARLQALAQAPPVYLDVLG
T1 sequence (Q16288 32-839 G696A): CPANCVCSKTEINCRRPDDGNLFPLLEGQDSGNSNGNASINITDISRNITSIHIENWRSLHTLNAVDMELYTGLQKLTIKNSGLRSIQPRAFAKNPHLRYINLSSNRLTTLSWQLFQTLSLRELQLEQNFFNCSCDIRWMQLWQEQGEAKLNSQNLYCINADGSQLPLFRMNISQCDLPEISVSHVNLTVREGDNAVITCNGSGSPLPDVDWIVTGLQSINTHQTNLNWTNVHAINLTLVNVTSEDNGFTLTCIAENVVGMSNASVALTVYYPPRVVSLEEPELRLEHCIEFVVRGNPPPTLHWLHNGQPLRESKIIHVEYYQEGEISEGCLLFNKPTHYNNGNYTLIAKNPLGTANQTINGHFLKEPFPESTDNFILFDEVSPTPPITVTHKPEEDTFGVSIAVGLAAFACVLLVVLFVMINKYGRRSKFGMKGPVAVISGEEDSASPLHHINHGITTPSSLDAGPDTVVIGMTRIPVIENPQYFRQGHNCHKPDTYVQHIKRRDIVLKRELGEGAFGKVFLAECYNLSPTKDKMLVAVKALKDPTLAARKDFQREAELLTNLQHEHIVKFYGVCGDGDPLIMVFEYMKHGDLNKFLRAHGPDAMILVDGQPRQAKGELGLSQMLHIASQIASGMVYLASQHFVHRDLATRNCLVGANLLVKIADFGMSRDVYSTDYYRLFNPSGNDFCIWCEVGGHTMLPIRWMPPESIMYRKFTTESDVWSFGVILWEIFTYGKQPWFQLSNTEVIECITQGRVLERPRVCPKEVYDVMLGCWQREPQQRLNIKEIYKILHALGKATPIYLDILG
T7 sequence (Q16288 32-839 G623R): as the sequence (Q16288 32-839 G696A) above, with G592R, A665G counted along it
T5 sequence (P04629 33-796 G595R): as the sequence (P04629 33-796 F589L) above, with L557F, G563R counted along it
T3 sequence (P04629 33-796): as the sequence (P04629 33-796 F589L) above, with L557F counted along it
T4 sequence (Q16288 32-825 isoform Q16288-3 limits assumed): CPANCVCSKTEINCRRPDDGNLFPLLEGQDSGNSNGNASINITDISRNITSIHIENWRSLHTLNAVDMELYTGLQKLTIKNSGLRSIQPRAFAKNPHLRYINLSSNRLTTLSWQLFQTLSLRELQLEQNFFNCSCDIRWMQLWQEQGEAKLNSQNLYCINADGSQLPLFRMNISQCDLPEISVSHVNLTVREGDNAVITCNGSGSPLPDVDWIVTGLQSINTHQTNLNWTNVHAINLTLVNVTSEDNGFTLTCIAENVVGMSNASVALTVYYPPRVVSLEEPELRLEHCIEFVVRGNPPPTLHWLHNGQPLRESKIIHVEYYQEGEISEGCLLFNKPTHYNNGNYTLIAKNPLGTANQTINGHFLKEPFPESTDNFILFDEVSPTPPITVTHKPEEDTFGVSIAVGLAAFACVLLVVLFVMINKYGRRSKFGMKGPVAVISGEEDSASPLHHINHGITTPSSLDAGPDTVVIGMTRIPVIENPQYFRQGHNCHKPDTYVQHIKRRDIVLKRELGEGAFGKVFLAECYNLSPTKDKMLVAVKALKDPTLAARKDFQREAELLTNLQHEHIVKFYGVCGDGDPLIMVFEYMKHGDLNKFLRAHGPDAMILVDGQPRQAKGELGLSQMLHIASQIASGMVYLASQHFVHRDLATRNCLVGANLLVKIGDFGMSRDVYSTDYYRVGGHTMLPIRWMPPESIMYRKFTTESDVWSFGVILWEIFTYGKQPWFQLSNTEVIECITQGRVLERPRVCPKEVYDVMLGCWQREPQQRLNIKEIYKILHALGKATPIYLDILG
T8 sequence (P04629 33-796 G667C): as the sequence (P04629 33-796 F589L) above, with L557F, G635C counted along it

C[C@@H](Nc1ccn2ncc(-c3cnn(CCO)c3)c2n1)c1cc(F)ccc1OCC(F)F [Compound 5, (R)-2-(4-(5-((1-(2-(2,2-difluoroethoxy)-5-fluorophenyl)ethyl)amino)pyrazolo [1,5-a]pyrimidin-3-yl)-1H-pyrazol-1-yl) ethanol]
IC50 (TRKC-G696A): 1 nM | IC50 (TRKA-F589L): 0.29 nM | IC50 (TRKA): 3.6 nM | Vd ([1]; in vivo, iv, 1 mg/kg): 40 L/kg | clearance ([1]; in vivo, iv, 1 mg/kg): 83.3 mL/min/kg | Cmax ([1]; intravenous injection 1 mg/kg): 104.1 ng/mL | T1/2 ([1]; intravenous injection 1 mg/kg): 5.7 h | AUC(0-t) ([1]; plasma, iv, 1 mg/kg): 194 ng·h/mL | MRT last ([1]; plasma, iv, 1 mg/kg): 3.89 h | IC50 (TRKC): 11.1 nM | Partially regression (Human NSCLC H2228 [2]; [5]): 2/6 | complete regression (Human NSCLC H2228 [2]; [5]): 3/6 | Tumor growth inhibition value D14 (Human NSCLC H2228 [2]; 50 mg/kg BID gavage D0-7, dosing stopped from D8, read at D14, 50 mg/kg): 155% | Tumor growth inhibition value D14 (Human NSCLC H2228 [2]; 50 mg/kg BID gavage D0-7, dosing stopped from D8, read at D14, listed as compound 5, 50 mg/kg): 155% | tumor completely regressed D7 (Human NSCLC H2228 [2]; 50 mg/kg BIDx8, D7, tumors regressed/animals per group): 4/6 | tumor inhibition rate D7 (Human NSCLC H2228 [2]; 50 mg/kg BIDx8, read at D7): 182% | bioavailability ([3]; in vivo, po, 5 mg/kg): 49.3% | CL ([3]; oral 5 mg/kg): 158 mL/min/kg | Cmax ([3]; oral 5 mg/kg): 217.7 ng/mL | T1/2 ([3]; oral 5 mg/kg): 5.7 h | Tmax ([3]; oral 5 mg/kg): 0.25 h | Vz ([3]; oral 5 mg/kg): 79.26 L/kg | AUC(0-t) ([3]; plasma, po, 5 mg/kg): 479 ng·h/mL | MRT last ([3]; plasma, po, 5 mg/kg): 3.6 h | IC50 (TRKA-G595R): 0.88 nM | IC50 (TRKB): 3.9 nM | IC50 (TRKC-G623R): 0.61 nM | IC50 (TRKA-G667C): 0.95 nM

C[C@@H](Nc1ccn2ncc(-c3cn[nH]c3)c2n1)c1cc(F)ccc1OCC(F)(F)F [Compound b8-30, (R)-N-(1-(5-fluoro-2-(2,2,2-trifluoroethoxy)phenyl)ethyl)-3-(1H-pyrazol-4-yl) pyrazolo [1,5-a] pyrimidin-5-amine]
IC50 (TRKC-G696A): 1.3 nM | IC50 (TRKA-F589L): 0.44 nM | IC50 (TRKA): 2.8 nM | AUC(0-t) ([1]; plasma, iv, 1 mg/kg): 518 ng·h/mL | Cmax ([1]; plasma, iv, 1 mg/kg): 174 ng/mL | MRT last ([1]; plasma, iv, 1 mg/kg): 4.2 h | Vd ([1]; plasma, iv, 1 mg/kg): 12.7 L/kg | clearance ([1]; plasma, iv, 1 mg/kg): 30.3 mL/min/kg | half-life ([1]; plasma, iv, 1 mg/kg): 4.95 h | IC50 (TRKC): 3.9 nM | Partially regression (Human NSCLC H2228 [4]; 25 mg/kg BID D0-13 (50 mg/kg from D8)): 6/6 | Tumor growth inhibition value/ D14 (Human NSCLC H2228 [4]; 25 mg/kg BID D0-13 (dose increased from D8 to 50 mg/kg), read at D14): 127% | Tumor growth inhibition value/ D14 (Human NSCLC H2228 [4]; 25 mg/kg BID D0-13 (dose increased from D8 to 50 mg/kg), read at D14, listed as compound b8-30): 127% | tumor inhibition rate D7 (Human NSCLC H2228 [4]; 25 mg/kg BID, read at D7): 95% | Partially regression (Human NSCLC H2228 [4]; 50 mg/kg QD D0-10 (100 mg/kg from D8)): 3/6 | Tumor growth inhibition value/ D14 (Human NSCLC H2228 [4]; 50 mg/kg QD D0-10 (dose raised from D8 to 100 mg/kg), read at D14): 110% | Tumor growth inhibition value/ D14 (Human NSCLC H2228 [4]; 50 mg/kg QD D0-10 (dose raised from D8 to 100 mg/kg), read at D14, listed as compound b8-30): 110% | tumor suppression D7 (Human NSCLC H2228 [4]; 50 mg/kg QD, read at D7): 96% | CL ([3]; oral 5 mg/kg): 57.7 mL/min/kg | Vz ([3]; oral 5 mg/kg): 19.23 L/kg | AUC(0-t) ([3]; plasma, po, 5 mg/kg): 1460 ng·h/mL | Cmax ([3]; plasma, po, 5 mg/kg): 283 ng/mL | MRT last ([3]; plasma, po, 5 mg/kg): 4.27 h | Tmax ([3]; plasma, po, 5 mg/kg): 2 h | bioavailability ([3]; plasma, po, 5 mg/kg): 56.2% | half-life ([3]; plasma, po, 5 mg/kg): 4 h | IC50 (TRKA-G595R): 0.75 nM | IC50 (TRKB): 3.2 nM | IC50 (TRKC-G623R): 0.73 nM | IC50 (TRKA-G667C): 0.76 nM
